Assay results from patent publication US10137185B2, “PAP peptide analogues” (THE NOTTINGHAM TRENT UNIVERSITY, priority 2014, dated 2018).
Where “and” joins values, the source holds several entries; their conditions need not be identical. Equal values may be shown once.

Key:
[1] = system: PBMCs isolated from patients with prostate cancer; assay: IFNγ ELISA of supernatants of PBMCs, Norway clinical trial; assay type: cell-based, human
Protocol: FIG. 8. Fold change in the IFNγ response generated by PBMCs isolated from patients with prostate cancer from the Norway Clinical Trial after re-stimulation with of PAP-115-123 epitope peptide (10 μg), as assessed using an ELISA. Patients that were reported to have responded to the treatment (p10, p12, p15, p19, p101, p102, p107, p108) are indicated by red bars. […] The cryopreserved PBMCs were washed and rested overnight, at which time 4×10^4 cells were added to each well of a 96 well plate. PAP-115-123 epitope peptide (10 μg) was added to each well and the plates cultured for 48 hours. Supernatants were harvested and analysed for IFNγ secretion.
Cryopreserved PBMCs were thawed, washed and rested overnight, at which time 4×10^4 cells were added to each well of an ELISPOT plate. PAP-115-123 epitope peptide (10 μg) was to each well and cells were cultured for 48 hours. The plates were developed according to the manufacturer's protocol. PBMCs cultured with HIV-derived peptide or no peptide were used as controls. A 2-4 fold higher PAP-115-123 specific IFNγ response was observed using PBMCs from 8 of the responder patients and 2-12 fold decreases in the IFNγ response was observed using PBMCs from 4 of the non-responder patients (FIG. 7). IFNγ secretion in these samples was confirmed by analysing harvested supernatants using an R&D Systems ELISA (FIG. 8). […]

[2] = system: PBMCs isolated from patients with prostate cancer; assay: IFNγ ELISPOT of pre- and post-vaccination PBMCs, Norway clinical trial (mRNA-transfected DC vaccine); assay type: cell-based, human; settings: for post-vaccination samples with significantly higher peptide-specific IFNγ response than pre-vaccination: of 8 responder samples, 48 hours
Description: FIG. 4. The flow chart of Norway clinical trial. Monocytes were isolated from patients with prostate cancer and cultured in vitro. mRNA isolated from the prostate cancer cell lines DU145, LNCAP and PC3 were transfected into immature dendritic cells (DCs). The DCs were then allowed to mature and were re-infused back into the patient. PBMCs isolated a week before (pre-vaccination) and 12 weeks after immunisations (post-vaccination) were used in this study. The patients were categorised as responders and non-responders based on the PSA levels and also metastatic state of the disease based on bone scans post immunisation.
FIG. 5. IFNγ response of PBMCs isolated from patients with prostate cancer who had responded to the therapy and were categorised as being ‘responders’ on the basis of the criteria detailed above (Norway Clinical Trial) after re-stimulation with PAP-115-123 epitope peptide (10 μg), as determined using the ELISPOT assay. PBMCs isolated pre-vaccination (black bars) and post vaccination (red bars) are compared. Patient samples are represented as p10, p12, p15 etc. The cryopreserved PBMCs were washed and rested overnight, at which time 4×10^4 cells were added to each well of an ELISPOT plate. PAP-115-123 epitope peptide (10 μg) was added to each well and the cells cultured for 48 hours. The plates were then washed according to the manufacturer's protocol. PBMCs cultured with an HIV-derived peptide or no added peptide were used as controls. Comparisons of means (±SEM) between groups (pre-vaccination or post-vaccination PBMCs) are made using an unpaired t test.
FIG. 6. IFNγ response of PBMCs isolated from patients with prostate cancer who had responded to the therapy and were categorised as being ‘responders’ on the basis of the criteria detailed above after re-stimulation with PAP-115-123 epitope peptide (1 μg), as determined using the ELISPOT assay. PBMCs isolated pre-vaccination (black bars) and post-vaccination (red bars) are compared here. Patient samples are represented as p10, p12, p15 etc. The cryopreserved PBMCs were washed and rested overnight, at which time 4×10^4 cells were added to each well of an ELISPOT plate. PAP-115-123 epitope peptide (1 μg) was added to each well and the cells cultured for 48 hours. The plates were then washed according to manufacturer's protocol. PBMCs cultured with HIV-derived peptide or no added peptide were used as controls. Comparisons of means (±SEM) between groups (pre-vaccination or post-vaccination PBMCs) are made using an unpaired t test.
FIG. 7. Fold change in the IFNγ response generated by PBMCs isolated from patients with prostate cancer from the Norway Clinical Trial after restimulation with PAP-115-123 epitope peptide (10 μg), as determined using the ELISPOT assay. Patients that were reported to have responded to the treatment (p10, p12, p15, p19, p101, p102, p107, p108) are indicated by red bars. […] The cryopreserved PBMCs were washed and rested overnight, at which time 4×10^4 cells were added to each well of an ELISPOT plate. PAP-115-123 epitope peptide (10 μg) was added to each well and the plates cultured for 48 hours. The plates were then washed according to the manufacturer's protocol. PBMCs cultured with HIV-derived peptide or no added peptide were used as control.
The presence of circulating PAP-115-123 specific T cells in PBMCs isolated from patients with prostate cancer following treatment with DCs that had been transfected with mRNA isolated from the prostate cancer cell lines (DU145, LNCaP and PC3) as part of a Norwegian Clinical Trial which was performed by Professor Gustav Gaudernack was determined on the basis of their responsiveness to PAP-derived peptides. In the trial, DCs were isolated from patients with prostate cancer and cultured DCs were transfected with mRNA isolated from the prostate cancer cell lines (DU145, LNCaP and PC3). The matured DCs were re-infused back into the patients (FIG. 4). […]

SAMTNLAAL [PAP-115-123] was tested, and the “fold lower IFNγ levels post vs pre vaccination, non-responders” value ([1]; 10 μg peptide) was 2-2.5 fold, the “fold higher IFNγ levels post vs pre vaccination, responders” value ([1]; all responders except p19, 10 μg peptide) was 1-1.5 fold and the “number of spots, pre-vaccination samples” value ([2]; 1 μg peptide) was 10-30 spots. The “number of spots, post-vaccination samples” value ([2]; 1 μg peptide, patients p12, p19, p101, p102, p107, p108) was 60-140 spots, the “number of spots, pre-vaccination samples” value ([2]; 10 μg peptide) was 10-30 spots and the “number of spots, post-vaccination samples” value ([2]; 10 μg peptide, patients p12, p15, p19, p102, p107, p108) was 60-160 spots. The “fold decrease in IFNγ response post vs pre vaccination, non-responders” value ([2]; 4 non-responder patients, 10 μg peptide, ELISPOT) was 2-12 fold and 2-10 fold, the “fold higher peptide-specific IFNγ response post vs pre vaccination, responders” value ([2]; 8 responder patients, 10 μg peptide, ELISPOT) was 2-4 fold and the “post-vaccination samples with significantly higher peptide-specific IFNγ response than pre-vaccination” value ([2]; 1 μg peptide) was 6. The “post-vaccination samples with significantly higher peptide-specific IFNγ response than pre-vaccination” value ([2]; 10 μg peptide) was 6.
